Measurements: US20170304388A1, “NEW INDICATION OF CARDIOVASCULAR DRUGS FOR PREPARATION OF CANCER INHIBITION PHARMACEUTICAL COMPOSITION” (LAUNX BIOMEDICAL CO., LTD., priority 2014, published 2017)
Structures can show the parent of a compound that is named as a salt.

Experiments:
Assay type in all cases: cell-based
[1] = system: A375 (Amelanotic Melanoma); experiment: Cell viability analysis (WST-1), A375; details: Table 4, repeated experiments, drug 10 μM; for survival rate (viability) of cancer cells, A375: 72 hours, WST-1
[2] = system: HCT116 (Colorectal Carcinoma); experiment: Cell viability analysis (WST-1), HCT116; details: Table 4, repeated experiments, drug 10 μM; for viability at 10 µM: Homo sapiens, HCT-116, 72 h, WST-1, read-out: survival rate (viability) of cancer cells, HCT116
[3] = system: HepG2 (Hepatocellular Carcinoma); experiment: Cell viability analysis (WST-1), HepG2; details: Table 4, repeated experiments, drug 10 μM; for survival rate (viability) of cancer cells, HepG2: 72 hours, WST-1
[4] = system: HeLa (Cervix Adenocarcinoma); experiment: Cell viability analysis (WST-1), HeLa; details: Table 4, repeated experiments, drug 10 μM
[5] = system: AGS (Gastric Adenocarcinoma); experiment: Cell viability analysis (WST-1), AGS; details: Table 4, repeated experiments, drug 10 μM; for viability at 10 µM: 72 h, WST-1, read-out: survival rate (viability) of cancer cells, AGS
[6] = system: H1650 (Lung Adenocarcinoma); experiment: Cell viability analysis (WST-1), H1650; details: Table 4, repeated experiments, drug 10 μM; for survival rate (viability) of cancer cells, H1650: 72 hours, WST-1
[7] = system: MKN-45 (Gastric Adenocarcinoma); experiment: Cell viability analysis (WST-1), MKN-45; details: Table 4, repeated experiments, drug 10 μM; for viability at 10 µM: Homo sapiens, MKN-45, 72 h, WST-1, read-out: survival rate (viability) of cancer cells, MKN-45
[8] = system: TSGH-8301 (Urinary Bladder Carcinoma); experiment: Cell viability analysis (WST-1), TSGH-8301; details: Table 4, repeated experiments, drug 10 μM; for viability at 10 µM: 72 h, WST-1, read-out: survival rate (viability) of cancer cells, TSGH-8301
[9] = system: A549 (Lung Adenocarcinoma); experiment: Cell viability analysis (WST-1), A549; details: Table 4, repeated experiments, drug 10 μM; for survival rate (viability) of cancer cells, A549: 72 hours, WST-1
[10] = system: MCF7 (Mammary Gland, Adenocarcinoma); experiment: Cell viability analysis (WST-1), MCF7; details: Table 4, repeated experiments, drug 10 μM; for viability at 10 µM: Homo sapiens, MCF7, 72 h, WST-1, read-out: survival rate (viability) of cancer cells, MCF-7
[11] = system: PC3 (Prostate Adenocarcinoma); experiment: Cell viability analysis (WST-1), PC3; details: Table 4, repeated experiments, drug 10 μM; for viability at 10 µM: 72 h, WST-1, read-out: survival rate (viability) of cancer cells, PC-3
[12] = system: LoVo (Colorectal Adenocarcinoma); experiment: Cell viability analysis (WST-1), LoVo; details: Table 4, repeated experiments, drug 10 μM; for viability at 10 µM: Homo sapiens, LoVo, 72 h, WST-1, read-out: survival rate (viability) of cancer cells, LoVo
T24 = experiment: Cell viability analysis (WST-1), T24; details: Table 4, repeated experiments, drug 10 μM; for viability at 10 µM: Homo sapiens, T-24, 72 h, read-out: survival rate (viability) of cancer cells, T24
Procedure: (§1) Subculture the different types of cancer cells. The cancer cells includes lung cancer, gastric cancer, hepatic cancer, colon cancer, skin cancer, cervical cancer, prostate cancer, bladder cancer, breast cancer, leukemia, pancreatic cancer, ovarian cancer, tongue cancer, osteosarcoma, and renal cancer. The cell numbers were counted and reseed as 2×10^6 in cell culture plate/flask. Then, the culture medium for culturing the cell lines was added to a volume of 10 ml, and the cells were cultured for 2-3 days. Then, the cells were suspended for loading into 96-well plates. The cell number was 3000 cells and the volume of the culture medium was 100 ul each well.
(§2) Removing the original culture medium from 96-well plate. Then add 100 μl of commercially drug at a concentration of 10 μM per well. After 72 hours, add the diluted WST-1 reagent to the well with 100 μl/well, and the diluted WST-1 reagent was acquired from the dilution of 9:1 medium and WST-1 stock reagent. Finally, the total volume of each well are 200 μl/well. Culture the 96-well plate at 37° C. for 30 to 90 minutes. Detecting and calculating the survival rate of each cancer cells with an ELISA reader at OD450 nm. The lower viability of cancer cells represents better inhibition effect via the drugs. Otherwise, the higher viability of cancer cells represents worse inhibition effect via the drugs.
(§3) According to the above mentioned cardiovascular drugs for cancer growth inhibition in Table 3, the inventors took the repeat experiments for the cardiovascular drugs to check the growth inhibitory effects of cancer cells by the cardiovascular drugs. […] 4.

Hep3B = experiment: Cell viability analysis (WST-1), Hep3B; details: Table 4, repeated experiments, drug 10 μM; for survival rate (viability) of cancer cells, Hep3B: 72 hours
Procedure: as §1, §2, §3

C-33A = experiment: Cell viability analysis (WST-1), C-33A; details: Table 4, repeated experiments, drug 10 μM; for viability at 10 µM: Homo sapiens, C-33-A, 72 h, read-out: survival rate (viability) of cancer cells, C-33A
Procedure: as §1, §2, §3

MDA-MB231 = experiment: Cell viability analysis (WST-1), MDA-MB231; details: Table 4, repeated experiments, drug 10 μM; for viability at 10 µM: Homo sapiens, MDA-MB-231, 72 h, read-out: survival rate (viability) of cancer cells, MDA-MB231
NIH-OVCAR-3 = experiment: Cell viability analysis (WST-1), NIH-OVCAR-3; details: Table 4, repeated experiments, drug 10 μM; for viability at 10 µM: Homo sapiens, OVCAR-3, 72 h, read-out: survival rate (viability) of cancer cells, NIH-OVCAR-3
Procedure: as §1, §2, §3

TOV-21G = experiment: Cell viability analysis (WST-1), TOV-21G; details: Table 4, repeated experiments, drug 10 μM; for survival rate (viability) of cancer cells, TOV-21G: 72 hours
Procedure: as §1, §2, §3

AsPC-1 = experiment: Cell viability analysis (WST-1), AsPC-1; details: Table 4, repeated experiments, drug 10 μM; for viability at 10 µM: Homo sapiens, ASPC1, 72 h, read-out: survival rate (viability) of cancer cells, AsPC-1
Procedure: as §1, §2, §3

BxPC-3 = experiment: Cell viability analysis (WST-1), BxPC-3; details: Table 4, repeated experiments, drug 10 μM; for viability at 10 µM: Homo sapiens, BXPC-3, 72 h, read-out: survival rate (viability) of cancer cells, BxPC-3
Procedure: as §1, §2, §3

SAS = experiment: Cell viability analysis (WST-1), SAS; details: Table 4, repeated experiments, drug 10 μM; for viability at 10 µM: 72 h, read-out: survival rate (viability) of cancer cells, SAS
Procedure: as §1, §2, §3

U2OS = experiment: Cell viability analysis (WST-1), U2OS; details: Table 4, repeated experiments, drug 10 μM; for viability at 10 µM: Homo sapiens, U2OS, 72 h, read-out: survival rate (viability) of cancer cells, U2OS
Procedure: as §1, §2, §3

BCC = experiment: Cell viability analysis (WST-1), BCC; details: Table 4, repeated experiments, drug 10 μM, 72 hours
786-O = experiment: Cell viability analysis (WST-1), 786-O; details: Table 4, repeated experiments, drug 10 μM; for viability at 10 µM: Homo sapiens, 786-0, 72 h, read-out: survival rate (viability) of cancer cells, 786-O
Procedure: as §1, §2, §3

cancer cell lines = experiment: Growth inhibitory effects on the panel of cancer cell lines; details: drug 10 μM, 72 hours, WST-1
Text: For cell viability analysis, the cardiovascular drugs include peripheral vasodilator reaming enhancer, angiotensin converting agent inhibitor, hypotension and shock therapeutic agent, diuretic, antiarrhythmic agent, antiarralciton drug, antihypertensive agent, anticoagulant thrombolytic agent, cardiac tonic, intravenous (hemorrhoids) therapeutic agent, are used to test the inhibition effect of cancer cell.

With CCOC(=O)C1=C(COCCN)NC(C)=C(C(=O)OC)C1c1ccccc1Cl (stereo not drawn) [Amlodipine (Norvase), Amlodipine] the “survival rate (viability) of cancer cells, A375” value [1] was 81.58, the “survival rate (viability) of cancer cells, HCT116” value ([2]; 72 hours, WST-1) was 91.96 and the “survival rate (viability) of cancer cells, HepG2” value [3] was 71.76. For the same molecule, the “survival rate (viability) of cancer cells, HeLa” value ([4]; 72 hours, WST-1) was 86.96, the viability at 10 µM [5] was 16.5% and the “survival rate (viability) of cancer cells, H1650” value [6] was 72.01. For the same molecule, the viability at 10 µM [7] was 88.2%, the viability at 10 µM [8] was 36.2% and the “survival rate (viability) of cancer cells, A549” value [9] was 89.22. The “survival rate (viability) of cancer cells, MCF-7” value ([10]; 72 hours, WST-1) was 63.42, the “survival rate (viability) of cancer cells, PC-3” value ([11]; 72 hours, WST-1) was 85.88 and the “survival rate (viability) of cancer cells, LoVo” value ([12]; 72 hours, WST-1) was 90.33. For the same molecule, the viability at 10 µM (T24) was 96.6%, the “survival rate (viability) of cancer cells, Hep3B” value (Hep3B) was 99.22 and the “survival rate (viability) of cancer cells, C-33A” value (C-33A; 72 hours) was 38.18. For the same molecule, the “survival rate (viability) of cancer cells, MDA-MB231” value (MDA-MB231; 72 hours) was 87.55, the “survival rate (viability) of cancer cells, NIH-OVCAR-3” value (NIH-OVCAR-3; 72 hours) was 90.31 and the “survival rate (viability) of cancer cells, TOV-21G” value (TOV-21G) was 61.32. For the same molecule, the “survival rate (viability) of cancer cells, AsPC-1” value (AsPC-1; 72 hours) was 89.04, the viability at 10 µM (BxPC-3) was 86% and the viability at 10 µM (SAS) was 99.2%. The viability at 10 µM (U2OS) was 78.9%, the “survival rate (viability) of cancer cells, BCC” value (BCC) was 74.9299 and the viability at 10 µM (786-O) was 81.4%.

COC(=O)C1=C(C)NC(C)=C(C(=O)OC2CCCN(Cc3ccccc3)C2)C1c1cccc([N+](=O)[O-])c1 (stereo not drawn) [Benidipine hydrochloride] gave a viability at 10 µM ([1]; Homo sapiens, A-375, 72 h, WST-1, read-out: survival rate (viability) of cancer cells, A375) of 76%, a viability at 10 µM [2] of 90.6% and a viability at 10 µM ([3]; Homo sapiens, HepG2, 72 h, WST-1, read-out: survival rate (viability) of cancer cells, HepG2) of 83.6%. It also gave a viability at 10 µM ([4]; Homo sapiens, HeLa, 72 h, WST-1, read-out: survival rate (viability) of cancer cells, HeLa) of 92.9%, a viability at 10 µM [5] of 87.8% and a viability at 10 µM ([6]; Homo sapiens, NCI-H1650, 72 h, WST-1, read-out: survival rate (viability) of cancer cells, H1650) of 64.5%. The viability at 10 µM [7] was 92.9%, the viability at 10 µM [8] was 81.5% and the viability at 10 µM ([9]; Homo sapiens, A549, 72 h, WST-1, read-out: survival rate (viability) of cancer cells, A549) was 70.3%. For the same molecule, the viability at 10 µM [10] was 77.3%, the viability at 10 µM [11] was 88.5% and the viability at 10 µM [12] was 69%. It also gave a viability at 10 µM (T24) of 61%, a viability at 10 µM (Hep3B; Homo sapiens, Hep3B, 72 h, read-out: survival rate (viability) of cancer cells, Hep3B) of 98.8% and a viability at 10 µM (C-33A) of 105%. It also gave a viability at 10 µM (MDA-MB231) of 77.3%, a viability at 10 µM (NIH-OVCAR-3) of 85.2% and a viability at 10 µM (TOV-21G; Homo sapiens, TOV21G, 72 h, read-out: survival rate (viability) of cancer cells, TOV-21G) of 47.5%. The viability at 10 µM (AsPC-1) was 63.4%, the viability at 10 µM (BxPC-3) was 73.8% and the viability at 10 µM (SAS) was 64.5%. For the same molecule, the viability at 10 µM (U2OS) was 54.2%, the viability at 10 µM (786-O) was 78.9% and the “inhibition effect on different cancer cell lines (in words)” value (cancer cell lines) was “significant inhibition effect”.

With CCOC(=O)C1=C(COCCN)NC(C)=C(C(=O)OC)C1c1ccccc1Cl (stereo not drawn) [Amlodipine besylate (Norvase), Amlodipine besylate] the “survival rate (viability) of cancer cells, A375” value [1] was 136.6675, the viability at 10 µM [2] was 78.3% and the “survival rate (viability) of cancer cells, HepG2” value [3] was 95.01. For the same molecule, the “survival rate (viability) of cancer cells, AGS” value ([5]; 72 hours, WST-1) was 12.18, the “survival rate (viability) of cancer cells, H1650” value [6] was 110.2477 and the “survival rate (viability) of cancer cells, MKN-45” value ([7]; 72 hours, WST-1) was 86.43. For the same molecule, the “survival rate (viability) of cancer cells, TSGH-8301” value ([8]; 72 hours, WST-1) was 36.2492, the “survival rate (viability) of cancer cells, A549” value [9] was 110.3104 and the viability at 10 µM [10] was 80.5%. The viability at 10 µM [11] was 73.6%, the viability at 10 µM [12] was 85.6% and the “survival rate (viability) of cancer cells, T24” value (T24; 72 hours) was 93.08. For the same molecule, the “survival rate (viability) of cancer cells, Hep3B” value (Hep3B) was 123.4192, the viability at 10 µM (C-33A) was 33.7% and the viability at 10 µM (MDA-MB231) was 82.7%. The viability at 10 µM (NIH-OVCAR-3) was 91.6%, the “survival rate (viability) of cancer cells, TOV-21G” value (TOV-21G) was 93.55 and the viability at 10 µM (AsPC-1) was 87.8%. For the same molecule, the “survival rate (viability) of cancer cells, BxPC-3” value (BxPC-3; 72 hours) was 99.11, the “survival rate (viability) of cancer cells, SAS” value (SAS; 72 hours) was 94.7983 and the “survival rate (viability) of cancer cells, U2OS” value (U2OS; 72 hours) was 71.06. For the same molecule, the “survival rate (viability) of cancer cells, BCC” value (BCC) was 102.9778, the “survival rate (viability) of cancer cells, 786-O” value (786-O; 72 hours) was 73.16 and the “inhibition effect on different cancer cell lines (in words)” value (cancer cell lines) was “significant inhibition effect”.
